Results as given in US9670213B2, “Pteridine ketone derivative and applications thereof as EGFR, BLK, and FLT3 inhibitor” (EAST CHINA UNIVERSITY OF SCIENCE AND TECHNOLOGY, priority 2012, dated 2017).

Legend:
BLK = BLK (Homo sapiens (Human), UniProt P51451); assay: BLK kinase activity assay (Caliper); type: biochemical; details: read-out: Inhibitory activity on kinase (IC50, nM) BLK
EGFR-L858R/T790M = EGFR-L858R/T790M (Homo sapiens (Human), UniProt P00533, L858R/T790M); assay: In vitro EGFR kinase activity assay (Z'-Lyte); type: biochemical; details: read-out: Inhibitory activity on EGFR kinase (IC50, nM) T790M/L858R;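 further: Cell-free kinase reaction with peptide substrate and ATP, 1.5 h at room temperature, development cleaving unphosphorylated peptide, 10-point dilution 0.051–1000 nM, phosphopeptide as 100% phosphorylation control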
Procedure: Inhibitory effects in vitro of the compounds provided in the present invention on EGFR kinase activity was tested as follows:
10 concentration gradients, from 5.1×10^−11 mol/L to 1.0×10^−6 mol/L, were set for all of the compounds to be tested.
10 μL of kinase reaction system comprised 2.5 μL of compound solution, 5 μL of Kinase/peptide mixture, and 2.5 μL of ATP solution. 5 μL of phosphopeptide solution was used in place of kinase/peptide mixture as 100% phosphorylation control. […] After thoroughly mixing the solution within the plate, the plate was incubated at room temperature for 1.5 hours. 5 μL of DevelopmentSolution was added into each well, and then the plate was incubated at room temperature for another 1 hour, and non-phosphorylated peptide was cleaved within this period. Finally, the reaction was quenched by adding 5 μL of Stop Reagent. The Plate was measured with EnVision Multilabel Reader (Perkin Elmer). Experimental data were calculated by using GraphPad Prism version 4.0. Each experiment was repeated more than three times.

[1] = test system: H1975 (non-small cell lung cancer cells, EGFR L858R/T790M); assay: Cell proliferation and growth inhibition analysis; type: cell-based; details: Homo sapiens, NCI-H1975, 72 hours, read-out: Inhibitory activity on cell proliferation (IC50, μM) H1975
[2] = test system: HCC827 (non-small cell lung cancer cells, EGFR del E746-A750); assay: Cell proliferation and growth inhibition analysis; type: cell-based; details: Homo sapiens, 72 hours, read-out: Inhibitory activity on cell proliferation (IC50, μM) HCC827
BRAF = BRAF (Homo sapiens (Human), UniProt P15056); assay: Kinase selectivity analysis (BRAF analysis); type: biochemical; details: for inhibition at 1 µM: read-out: % inhibition (1 μM), 1 μM; for inhibition at 10 µM: read-out: % inhibition (10 μM), 10 μM
Procedure: Kinase selectivity analysis: kinase selectivity experiment was performed by Shanghai ChemPartner using Caliper assay screening platform. All of kinases and other materials were purchased from commercial companies.
1. Preparation of 1× Kinase Buffer: 50 mM HEPES, pH 7.5, 10 mM MgCl2, 1 mM EGTA, 0.01% BRIJ-35.
2. Preparation of compounds for BRAF kinase test: 1) serial dilution of compound and preparation of stock solution plate. The compound was diluted in 100% DMSO to a concentration, which was 100 times of the highest concentration used in reaction, and 100 μL of the compound solution as said above was transferred into wells of 96-well plate. 30 μL of compound solution was transferred into 60 μL of 100% DMSO in the adjacent well, and the above operation was repeated for sequentially diluting the compound. 100 μL of 100% DMSO was added into two blank wells as no-compound and no-enzyme control, the plate was marked as stock solution plate. 2) Preparation of temporary plate. 4 μL of compound solution from the stock solution plate was transferred to another 96-well plate, 96 μL of 1× kinase buffer was added into each well, and the temporary plate was placed on a shaker and shaken for 10 mins for uniformly mixing the compound. 3) Preparation of assay plate. 2.5 μL of solution from each well of the 96-well temporary plate was added into a 384-well plate, and the experiment was independently repeated.
3. Kinase BRAF reaction: 1) Preparation of 2× kinase solution. BRAF solution was prepared in 1× kinase buffer, the concentration of which was 2 times of the final concentration in the test. 5 μL of kinase solution was added into each well of the assay plate (except for control well, into which 5 μL of 1× kinase buffer was added), and the assay plate was shaken. 2) Preparation of 4× substrate solution. Fluorescein-MAP2K1, ATP substrate solution was prepared in 1× kinase buffer, the concentration of which was 4 times of the final concentration in the test. 2.5 μL of substrate solution was added into each well of the assay plate to start the reaction, and the assay plate was shaken. 3) The kinase reaction was conducted by incubating at room temperature for 1 hour.
4. Kinase assay. Test solution was prepared in antibody dilution buffer, the concentration of which was 2 times of the following final concentration: antibody 2 nM, EDTA […]. 10 μL of test solution was added into each well of the assay plate to quench the assay. […]
5. Read data: the data was read on Envision (excitation at 340 nm, emission at 520 nm, […]).
6. […] The rate of RFU […] was calculated and converted into inhibition rate % Inhibition rate %=(maximum−rate of sample)/(maximum−minimum)*100, wherein “maximum” represents DMSO control rate, and “minimum” represents the no-enzyme control rate. […]

Sequence of BRAF (P15056 whole entry, species assumed): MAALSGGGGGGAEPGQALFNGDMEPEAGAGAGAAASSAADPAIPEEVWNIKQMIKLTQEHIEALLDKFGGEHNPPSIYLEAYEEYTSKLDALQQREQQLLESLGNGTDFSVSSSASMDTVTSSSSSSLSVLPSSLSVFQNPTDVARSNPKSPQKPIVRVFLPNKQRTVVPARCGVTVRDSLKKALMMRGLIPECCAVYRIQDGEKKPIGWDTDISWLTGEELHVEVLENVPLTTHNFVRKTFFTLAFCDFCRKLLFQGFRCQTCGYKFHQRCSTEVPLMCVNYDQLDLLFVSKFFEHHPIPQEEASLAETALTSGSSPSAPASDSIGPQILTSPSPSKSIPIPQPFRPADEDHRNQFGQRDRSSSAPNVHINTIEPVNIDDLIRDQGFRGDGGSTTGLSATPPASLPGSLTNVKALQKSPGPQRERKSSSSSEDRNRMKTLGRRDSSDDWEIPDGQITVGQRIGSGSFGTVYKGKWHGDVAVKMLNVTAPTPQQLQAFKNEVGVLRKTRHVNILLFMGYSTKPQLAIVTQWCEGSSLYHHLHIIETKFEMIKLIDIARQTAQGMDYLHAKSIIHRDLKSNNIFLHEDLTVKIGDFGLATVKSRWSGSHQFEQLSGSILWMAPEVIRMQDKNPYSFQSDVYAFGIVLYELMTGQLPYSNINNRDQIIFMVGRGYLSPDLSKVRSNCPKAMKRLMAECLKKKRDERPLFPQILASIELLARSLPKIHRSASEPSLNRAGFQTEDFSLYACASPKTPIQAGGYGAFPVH
Sequence of EGFR-L858R/T790M (P00533 25-1210 T790M/L858R): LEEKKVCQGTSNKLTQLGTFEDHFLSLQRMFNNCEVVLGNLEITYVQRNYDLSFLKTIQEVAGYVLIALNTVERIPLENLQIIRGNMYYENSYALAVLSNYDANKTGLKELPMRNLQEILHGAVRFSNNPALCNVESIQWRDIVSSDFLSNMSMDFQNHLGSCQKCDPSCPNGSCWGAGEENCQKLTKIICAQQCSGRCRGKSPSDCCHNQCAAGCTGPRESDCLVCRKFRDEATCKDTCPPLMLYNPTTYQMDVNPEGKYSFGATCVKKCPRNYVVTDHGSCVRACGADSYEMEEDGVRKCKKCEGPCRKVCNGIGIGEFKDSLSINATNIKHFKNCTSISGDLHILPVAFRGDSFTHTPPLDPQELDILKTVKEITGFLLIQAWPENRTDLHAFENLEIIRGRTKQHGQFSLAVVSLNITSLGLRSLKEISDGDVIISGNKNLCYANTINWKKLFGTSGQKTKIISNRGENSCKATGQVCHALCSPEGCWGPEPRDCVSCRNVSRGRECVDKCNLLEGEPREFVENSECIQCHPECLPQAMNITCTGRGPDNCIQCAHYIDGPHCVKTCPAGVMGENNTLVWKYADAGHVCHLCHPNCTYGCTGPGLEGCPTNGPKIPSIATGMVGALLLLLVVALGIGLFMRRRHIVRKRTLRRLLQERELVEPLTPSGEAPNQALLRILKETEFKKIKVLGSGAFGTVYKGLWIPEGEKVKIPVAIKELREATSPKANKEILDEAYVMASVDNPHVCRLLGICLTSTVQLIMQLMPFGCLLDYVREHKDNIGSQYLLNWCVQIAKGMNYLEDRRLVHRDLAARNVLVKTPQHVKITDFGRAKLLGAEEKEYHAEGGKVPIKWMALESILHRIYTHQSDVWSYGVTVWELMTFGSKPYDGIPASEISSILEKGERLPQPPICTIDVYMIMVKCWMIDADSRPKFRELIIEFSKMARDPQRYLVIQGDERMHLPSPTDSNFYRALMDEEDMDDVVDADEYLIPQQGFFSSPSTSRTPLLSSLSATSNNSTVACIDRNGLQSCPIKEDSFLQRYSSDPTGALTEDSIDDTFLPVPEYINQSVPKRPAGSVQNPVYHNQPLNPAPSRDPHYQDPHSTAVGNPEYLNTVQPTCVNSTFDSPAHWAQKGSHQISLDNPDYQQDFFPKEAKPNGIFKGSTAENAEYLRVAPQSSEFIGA
Sequence of BLK (P51451 whole entry): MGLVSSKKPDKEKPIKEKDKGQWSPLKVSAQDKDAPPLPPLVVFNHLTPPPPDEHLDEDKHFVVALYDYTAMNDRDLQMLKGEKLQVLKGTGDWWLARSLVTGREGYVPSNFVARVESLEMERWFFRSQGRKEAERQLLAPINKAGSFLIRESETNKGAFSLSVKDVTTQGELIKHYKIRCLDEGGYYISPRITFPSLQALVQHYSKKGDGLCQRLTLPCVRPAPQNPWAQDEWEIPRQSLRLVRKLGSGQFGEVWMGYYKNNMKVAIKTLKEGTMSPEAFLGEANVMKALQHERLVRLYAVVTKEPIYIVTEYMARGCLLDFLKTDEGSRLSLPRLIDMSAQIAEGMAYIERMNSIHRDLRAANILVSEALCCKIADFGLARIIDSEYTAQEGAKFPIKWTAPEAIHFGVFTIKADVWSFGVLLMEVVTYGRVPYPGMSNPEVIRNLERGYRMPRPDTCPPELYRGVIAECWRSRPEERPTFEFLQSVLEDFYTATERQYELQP

| Compound | IC50 (BLK) | IC50 (EGFR-L858R/T790M) | IC50 [1] | IC50 [2] | inhibition at 1 µM (BRAF) | inhibition at 10 µM (BRAF) |
| --- | --- | --- | --- | --- | --- | --- |
| C=CC(=O)Nc1cccc(-n2c(=O)cnc3cnc(Nc4ccc(N5CCN(C)CC5)cc4)nc32)c1 [Compound 020, N-(3-(2-(4-(4-methyl-1-piperazinyl)-phenylamino)-7-oxo-8(7H)-pteridin-yl)phenyl) acrylamide] | < 14 nM | 0.824 nM | 0.043 µM | 0.002 µM | -7% | 21% |
| C=CC(=O)Nc1cccc(-n2c(=O)cnc3cnc(Nc4ccc(N5CCN(C)CC5)cc4OC)nc32)c1 [Compound 032, N-(3-(2-(2-methoxy-4-(4-methyl-1-piperazinyl)-phenylamino)-7-oxo-8(7H)-pteridin-yl)phenyl)acrylamide] | 463 nM | 1.17 nM | 0.038 µM | 0.004 µM | 0.35% | -5.2% |
